# Assay results as given in PubChem BioAssay AID270 (DTP/NCI, 2004).
# Inconclusive results are not listed.
# Tested on: BDF1 mice, s.c. Lewis lung carcinoma, T/C %
# Assay: NCI In Vivo Anticancer Drug Screen. Data for tumor model Lewis Lung Carcinoma (subcutaneous) in B6D2F1 (BDF1) mice
# Method: The antitumor activity of compounds was measured in mice bearing transplantable tumors. Survival or tumor size were measured and the results are expressed as the measurement made in the treated group (T) divided by the measurement made in the vehicle treated control group (C). The tumor model used in this assay is Lewis Lung Carcinoma (subcutaneous) in B6D2F1 (BDF1) mice
# [1] = endpoint: mean tumor weight, dose: 50.0 mg/kg/injection, schedule: Q01DX011 (ip), vehicle: saline, higher = larger tumour
# [2] = endpoint: mean tumor weight, dose: 100.0 mg/kg/injection, schedule: Q01DX011 (ip), vehicle: saline, higher = larger tumour
structure (smiles),measurement,setting,value
Cc1ccc(N2CCN(CCCN3CCN(c4ccc(Cl)cc4)CC3)CC2)cc1,T/C,"endpoint: mean tumor weight, dose: 12.5 mg/kg/injection, schedule: Q01DX011 (ip), vehicle: other, higher = larger tumour",66 % of control
same,T/C,"endpoint: mean tumor weight, dose: 25.0 mg/kg/injection, schedule: Q01DX011 (ip), vehicle: other, higher = larger tumour",108 % of control
same,T/C,"endpoint: mean tumor weight, dose: 50.0 mg/kg/injection, schedule: Q01DX011 (ip), vehicle: other, higher = larger tumour",70 % of control
same,T/C,"endpoint: mean tumor weight, dose: 100.0 mg/kg/injection, schedule: Q01DX011 (ip), vehicle: other, higher = larger tumour",50 % of control
CCS(=O)(=O)Nc1cccc(Nc2c3cccc(C)c3nc3c(C)cccc23)c1OC,T/C,"endpoint: median survival time, dose: 12.5 mg/kg/injection, schedule: Q01DX011 (ip), vehicle: saline with Tween-80, higher = longer survival",111 % of control
same,T/C,"endpoint: median survival time, dose: 25.0 mg/kg/injection, schedule: Q01DX011 (ip), vehicle: saline with Tween-80, higher = longer survival",101 % of control
same,T/C,"endpoint: median tumor weight (est.), dose: 12.5 mg/kg/injection, schedule: Q01DX011 (ip), vehicle: saline with Tween-80, higher = larger tumour",82 % of control
same,T/C,"endpoint: median tumor weight (est.), dose: 25.0 mg/kg/injection, schedule: Q01DX011 (ip), vehicle: saline with Tween-80, higher = larger tumour",44 % of control
FC(F)(F)c1nc2nc(Cl)c(Cl)nc2[nH]1,T/C,"endpoint: median survival time, dose: 11.25 mg/kg/injection, schedule: Q01DX009 (ip), vehicle: Klucel (hydroxypropylcellulose) (HPC), higher = longer survival",105 % of control
same,T/C,"endpoint: median survival time, dose: 22.5 mg/kg/injection, schedule: Q01DX009 (ip), vehicle: Klucel (hydroxypropylcellulose) (HPC), higher = longer survival",101 % of control
same,T/C,"endpoint: median survival time, dose: 45.0 mg/kg/injection, schedule: Q01DX009 (ip), vehicle: Klucel (hydroxypropylcellulose) (HPC), higher = longer survival",96 % of control
same,T/C,"endpoint: median survival time, dose: 90.0 mg/kg/injection, schedule: Q01DX009 (ip), vehicle: Klucel (hydroxypropylcellulose) (HPC), higher = longer survival",98 % of control
NC(=O)n1cccn1,T/C,"endpoint: mean tumor weight, dose: 25.0 mg/kg/injection, schedule: Q01DX011 (ip), vehicle: saline, higher = larger tumour",76 % of control
same,T/C,"endpoint: mean tumor weight, dose: 25.0 mg/kg/injection, schedule: Q01DX011 (ip), vehicle: water, higher = larger tumour",88 % of control
same,T/C,[1],61 % of control
same,T/C,"endpoint: mean tumor weight, dose: 50.0 mg/kg/injection, schedule: Q01DX011 (ip), vehicle: water, higher = larger tumour",61 % of control
same,T/C,[2],49 % of control
same,T/C,"endpoint: mean tumor weight, dose: 100.0 mg/kg/injection, schedule: Q01DX011 (ip), vehicle: water, higher = larger tumour",39 % of control
CC(=O)C(C)=O,T/C,[1],116 % of control
same,T/C,[2],76 % of control
same,T/C,"endpoint: mean tumor weight, dose: 200.0 mg/kg/injection, schedule: Q01DX011 (ip), vehicle: saline, higher = larger tumour",71 % of control
same,T/C,"endpoint: mean tumor weight, dose: 400.0 mg/kg/injection, schedule: Q01DX011 (ip), vehicle: saline, higher = larger tumour",87 % of control
O=c1[nH]cc(N(CCCl)CCCl)c(=O)[nH]1,T/C,"endpoint: mean tumor weight, dose: 0.37 mg/kg/injection, schedule: Q01DX011 (ip), vehicle: carboxymethylcellulose (CMC), higher = larger tumour",70 % of control
same,T/C,"endpoint: mean tumor weight, dose: 0.57 mg/kg/injection, schedule: Q01DX011 (ip), vehicle: carboxymethylcellulose (CMC), higher = larger tumour",59 % of control
same,T/C,"endpoint: mean tumor weight, dose: 0.85 mg/kg/injection, schedule: Q01DX011 (ip), vehicle: carboxymethylcellulose (CMC), higher = larger tumour",38 % of control
CNC1=C(N2CC2)C(=O)C(NC)=C(N2CC2)C1=O,T/C,"endpoint: median survival time, dose: 0.02 mg/kg/injection, schedule: Q01DX009 (ip), vehicle: saline, higher = longer survival",120 % of control
same,T/C,"endpoint: median survival time, dose: 0.1 mg/kg/injection, schedule: Q01DX009 (ip), vehicle: saline, higher = longer survival",113 % of control
same,T/C,"endpoint: median survival time, dose: 0.2 mg/kg/injection, schedule: Q01DX009 (ip), vehicle: saline, higher = longer survival",105 % of control
same,T/C,"endpoint: median survival time, dose: 0.4 mg/kg/injection, schedule: Q01DX009 (ip), vehicle: saline, higher = longer survival",124 % of control
Nc1c(Cl)c(Cl)nc(C(=O)O)c1Cl,T/C,"endpoint: median survival time, dose: 25.0 mg/kg/injection, schedule: Q02DX009 (ip), vehicle: Klucel (hydroxypropylcellulose) (HPC), higher = longer survival",109 % of control
same,T/C,"endpoint: median survival time, dose: 25.0 mg/kg/injection, schedule: Q02DX009 (ip), vehicle: distilled water + Tween-80, higher = longer survival",121 % of control
same,T/C,"endpoint: median survival time, dose: 50.0 mg/kg/injection, schedule: Q02DX009 (ip), vehicle: Klucel (hydroxypropylcellulose) (HPC), higher = longer survival",98 % of control
same,T/C,"endpoint: median survival time, dose: 50.0 mg/kg/injection, schedule: Q02DX009 (ip), vehicle: distilled water + Tween-80, higher = longer survival",104 % of control
same,T/C,"endpoint: median survival time, dose: 100.0 mg/kg/injection, schedule: Q02DX009 (ip), vehicle: Klucel (hydroxypropylcellulose) (HPC), higher = longer survival",91 % of control
same,T/C,"endpoint: median survival time, dose: 100.0 mg/kg/injection, schedule: Q02DX009 (ip), vehicle: distilled water + Tween-80, higher = longer survival",88 % of control
same,T/C,"endpoint: median survival time, dose: 200.0 mg/kg/injection, schedule: Q02DX009 (ip), vehicle: Klucel (hydroxypropylcellulose) (HPC), higher = longer survival",92 % of control
same,T/C,"endpoint: median survival time, dose: 200.0 mg/kg/injection, schedule: Q02DX009 (ip), vehicle: distilled water + Tween-80, higher = longer survival",100 % of control
